These results are taken from patent US5274098A, “Amidinophenylalanine derivatives, process for their preparation, their use and compositions containing them” (Behringwerke Aktiengesellschaft, priority 1991, dated 1993).

For orientation: Ki means the dissociation constant of the complex between target and ligand, obtained from inhibition or displacement. As usually defined, the IC50 is the concentration that inhibits the measured activity by half. Lower therefore signals greater potency in that assay.

Structures are written as SMILES.

In experiment [1] the test system is thrombin. The following applies: cited from earlier work.
In experiment [2] the target is T1, human thrombin (Homo sapiens, UniProt P00734).
T1 construct: human thrombin
Briefly: KI value for thrombin (Lineweaver and Burk, Chromozym TH). To be noted: inhibitor conc. approx. IC50, Chromozym TH 0.7-45×10^-5 mol/l, read-out: Thrombin inhibition KI. Type of experiment: biochemical. How it is done: Determination of the KI value for thrombin:
The KI values for the compounds investigated were determined using the abovementioned thrombin solution. To do this, thrombin was incubated with a concentration of inhibitor which approximately corresponded to the IC50 value determined in the abovementioned test.

Experiment [3] concerns the target T1, human thrombin. Briefly: IC50 value of the thrombin inhibition (Chromozym TH, pNA release at 405 nm). To be noted: 0.1M tris-HCl/0.15 M NaCl pH 8.2, 1 h preincubation, substrate Chromozym TH 5×10^-5 M. The format is biochemical. How it is done:
Determination of the IC50 value of the thrombin inhibition:
The compounds were incubated with human thrombin in 0.1M tris-HCl buffer/0.15 M NaCl pH 8.2 in increasing concentrations.

Experiment [4] relates to thrombin. Briefly: Activity with respect to inhibition of thrombin / antithrombotic activity, general statements. The format is biochemical. The following applies: relative to the glycine compound. The source says: The inhibitors according to the invention are examined according to various criteria to assess their activity, preferably these are the determination of the Ki value, the IC50 value or the partial thromboplastin time (PTT) in vivo and in vitro.

As to `CC1CNc2c(cccc2S(=O)(=O)N[C@@H](CCCNC(=N)N)C(=O)N2CC[C@@H](C)C[C@@H]2C(=O)O)C1` (stereo partly shown) [MD 805, monohydrate], the “type of thrombin inhibition (prior art, in words)” value in the experiment with thrombin [1] was “competitive specific thrombin inhibitor”. For the compound `Cc1c(C)c(S(=O)(=O)NNC(=O)N[C@H](Cc2ccc(C(=N)N)cc2)C(=O)N2CCCCC2)c(C)c2c1OC(C)(C)CC2` [Pmc--AGly--Aph--Pip, Pmc-Azaglycyl-D-p-amidinophenylalanylpiperidide], on human thrombin [2], the inhibition constant Ki was 0.092 nM. Compound `N=C(N)c1ccc(C[C@@H](NC(=O)NNS(=O)(=O)c2ccc3ccccc3c2)C(=O)N2CCCCC2)cc1` [Nas--AGly--Aph--Pip, Beta-naphthylsulfonyl-azaglycyl-D-p-amidinophenylalanylpiperidide] gave an IC50 on human thrombin [3] of 1.3 nM. Besides, the inhibitory constant (Ki) at human thrombin [2] was found to be 2.6 nM. Also, the “exceeds the activity of the glycine compound by a factor” value with thrombin [4] came to 5. Take `Cc1c(C)c(S(=O)(=O)NCC(=O)NC(Cc2ccc(C(=N)N)cc2)C(=O)N2CCCCC2)c(C)c2c1OC(C)(C)CC2` (stereo not shown) [Pmc--Gly--Aph--Pip, reference compound]: the IC50 on human thrombin [3] was found to be 1.4 nM. Also, the Ki on human thrombin [2] was 1.3 nM.
